Test system: intrascapular area of the back
Assay: 14-day cumulative irritation Patch Test (occlusive patch, cleansers diluted to 25% w/w)
Conditions: for Patch test Total irritation score: higher score = more irritating
Experimental: This was randomized, double-blind study. A sufficient number of subjects were recruited to ensure that 25 subjects completed the study. The 14-day cumulative irritation test was conducted as follows. Patching occurred for 14 consecutive days, except on Sundays. Patches applied on Saturday were left in place until Monday, when freshly prepared patches were applied. The designated patch test sites were approximately 2 cm×2 cm on the intrascapular area of the back. Approximately 0.2 mL of the test product was placed onto a Parke-Davis Readi-Bandage® occlusive patch that measured 2 cm×2 cm. Solutions were made by diluting the cleansers to 25% w/w in distilled water. The patch was then applied to the designated test site. The patches were secured with hypoallergenic tape (Scanpor {Allerderm} as needed). A 0.5% sodium dodecyl sulfate (SDS) solution was used as the control in the test.
Each day following application, the patches were removed, the sites evaluated and identical patches reapplied to the same test sites. All evaluations were made using the following 6-point scoring system: • 0=No evidence of any effect • +=Barely perceptible (minimal, faint, uniform or spotty erythema) numerically equivalent to 0.5 • 1=Mild (pink, uniform erythema covering most of the contact site) • 2=Moderate (pink-red, erythema uniform in the entire contact site) • 3=Marked (bright red erythema with/without petechiae or papules) • 4=Severe (deep red erythema with/without vesiculation or weeping)
If a dermal reaction of 3 or 4 occur with any of the test articles at any point during the study, further patch testing on that subject was terminated at the test site involved, and the attained score was assigned to that site for the subsequent scheduled test days.
Cumulative irritation scores, which were the sum of the numerical irritation grades assigned daily during the 14-day test period, were calculated at the end of the study to compare mildness of the test products. […] The data were statistically analyzed using Tukey-Kramer Comparison, and statistical significance was determined at the 95% confidence level.

[1] = first series of Table 1 (0.5% SDS control = 783)
[2] = second series of Table 1 (0.5% SDS control = 912)

CCCCCCCCCCCCOS(=O)(=O)[O-].[Na+] [0.5% SDS Solution, sodium dodecyl sulfate]
Total irritation score compared to 0.5% SDS solution [1]: 100% | Patch test Total irritation score [1]: 783 | Total irritation score compared to 0.5% SDS solution [2]: 100% | Patch test Total irritation score [2]: 912
